Measured values from patent publication US6348483B1, “Use of derivatives of methylene-bis-oxazolidine and compositions obtained thereby” (Air Liquide Sante (International), priority 1998, dated 2002).
In brackets after ≈: the same amount, converted by molar mass.

Assays:
Assay type in all cases: cell-based
[1] = system: Fusarium oxysporum; assay: Serial dilution test according to DGHM (MIC); settings: aqueous 2% by weight strength solution in fully deionized water; unit assumed
From the text: (§1) Solutions of in each case 2% strength by weight in fully deionized water were examined against selected bacteria and/or yeasts and/or fungi and/or algae using the serial dilution test according to DGHM [German Society for Hygiene and Microbiology]. MIC values of the aqueous 2% by weight strength solutions: […]

[2] = system: Pseudomonas aeruginosa; assay: Serial dilution test according to DGHM (MIC); settings: aqueous 2% by weight strength solution in fully deionized water; unit assumed
From the text: as §1

[3] = system: E. coli; assay: Serial dilution test according to DGHM (MIC); settings: aqueous 2% by weight strength solution in fully deionized water; unit assumed
From the text: as §1

[4] = system: Cand. albicans; assay: Serial dilution test according to DGHM (MIC); settings: aqueous 2% by weight strength solution in fully deionized water; unit assumed
From the text: as §1

[5] = system: Asperg. niger; assay: Serial dilution test according to DGHM (MIC); settings: aqueous 2% by weight strength solution in fully deionized water; unit assumed
From the text: as §1

[6] = system: Chlorella fusca; assay: Serial dilution test according to DGHM (MIC); settings: aqueous 2% by weight strength solution in fully deionized water; unit assumed
From the text: as §1

[7] = system: Penicillium funiculosum; assay: Serial dilution test according to DGHM (MIC); settings: aqueous 2% by weight strength solution in fully deionized water; unit assumed
From the text: as §1

[8] = system: Rhodotorula mucilaginosa; assay: Serial dilution test according to DGHM (MIC); settings: aqueous 2% by weight strength solution in fully deionized water; unit assumed
From the text: as §1

[9] = system: Alternaria alternata; assay: Serial dilution test according to DGHM (MIC); settings: aqueous 2% by weight strength solution in fully deionized water; unit assumed
From the text: as §1

[10] = system: Aspergillus niger (AN); assay: Fungicidal finish (SM 022) of pure acrylate house paint; settings: for Fungicidal finish, colonization rating AN: without stress due to 72 hours leaching (so in the source)
Experimental: In separate batches, the test concentrations of the active compounds/products were incorporated into the house paint, and the fungicidal and/or algistatic finish was determined using the stated test methods.
Incorporation and testing were carried out according to the methods SM 022 and SM 023 below.
This laboratory method was used to determine the resistance of house coatings to fungal attack. For the method, house coatings on standardized paper were used as test substrate, and Aspergillus niger (ATCC 6275) and Penicillium funiculosum (ATCC 36839) were used as test fungi. The experiments were carried out in Petri dishes on dextrose nutrient medium.
50 g of the material to be finished were, in separate batches, mixed with various concentrations of the fungicide to be examined and homogenized for 3-5 min using a basket stirrer.
Paper carrier materials having the dimensions 90×270 mm (Schleicher & Schüll No. 2589 B/X 24078) were coated with the test material. The paint and/or render samples were coated to a wet-layer thickness of 250 μm by knife coating. […] In the case of renders, the layer thickness depended, as in practice, on the particle size. The coated carrier materials, hereinbelow referred to as test bodies, were subsequently dried in a horizontal position for five days.
The test bodies were watered in running tap water of 15±5° C. and a flow rate of 1 l/min for 72 hours and subsequently dried for two days. The cross section of the container for the watering in the direction of flow was 1000±500 cm^2.
From the pretreated test bodies, sample bodies having a diameter of 5 cm were punched out and sterilized in a Co^60 source using at least 10 kGy.
The Sabouraud dextrose agar, which had solidified in the Petri dish, was inoculated with 0.2 ml of spore suspension (10^7 spores/ml) and plated out using a sterile Drigalski spatula or an offset sterile glass rod.
The pretreated sample bodies were then evenly placed onto the inoculated surface of the nutrient medium using a pair of tweezers, making sure that the entire surface of the sample body was in contact with the surface of the nutrient medium. The sample was subsequently incubated at 30±2° C. for three weeks. For other test germs, the incubation temperature had to be adapted to achieve optimum growth.
After one, two and three weeks, the sample bodies were examined for fungal growth. Evaluation was carried out visually or—if this was required to exclude foreign infections—using a magnifying glass. If the extent of the colonization by foreign organisms observed considerably interfered with the evaluation, the experiment could not be evaluated and was repeated. The evaluation of the samples was based on the following evaluation scale:
00—entire plate free from colonization*
0—zone formation (no colonization around the sample)*
(0)—fungal colonization up to the sample*
1—only the sample edge is colonized*
2—the sample is colonized from the edge inwards (less than 25%)
3—the sample surface is colonized by individual colonies (25-75%)
4—the sample surface is colonized extensively (75% and more, but not the entire surface)
5—the sample surface is colonized completely (100%)
*Note: Samples evaluated as 00, 0, (0) and 1 can be referred to as “being effectively finished against fungal growth”.

[11] = system: Aspergillus niger (AN); assay: as above; settings: without stress due to leaching

- MIC value FO [1]: 1.56 µg/mL (≈ 8.38 µM)
- MIC value PS [2]: 6.25 µg/mL (≈ 33.6 µM)
- MIC value EC [3]: 6.25 µg/mL (≈ 33.6 µM)
- MIC value CA [4]: > 6.25 µg/mL
- MIC value AN [5]: 6.25 µg/mL (≈ 33.6 µM)
- MIC value CF [6]: 0.39 µg/mL (≈ 2.09 µM)
- MIC value PF [7]: 1.56 µg/mL (≈ 8.38 µM)
- MIC value RM [8]: 3.12 µg/mL (≈ 16.8 µM)
- MIC value AL [9]: 6.25 µg/mL (≈ 33.6 µM)
Structure (SMILES): CC1CN(CN2COC(C)C2)CO1 (stereo not shown) [Mar 71, 3,3′-methylenebis-(5-methyloxazolidine)]
- Fungicidal activity (in words), AN ([10]; house paint test): no fungicidal activity in practice
- Fungicidal finish, colonization rating AN ([10]; use conc. 0.5% W/W, 1. week): 5 (the sample surface is colonized completely (100%))
- Fungicidal finish, colonization rating AN ([10]; use conc. 0.5% W/W, 2. week): 5 (the sample surface is colonized completely (100%))
- Fungicidal finish, colonization rating AN ([10]; use conc. 1.0% W/W, 1. week): 5 (the sample surface is colonized completely (100%))
- Fungicidal finish, colonization rating AN ([10]; use conc. 1.0% W/W, 2. week): 5 (the sample surface is colonized completely (100%))
- Fungicidal finish, colonization rating AN ([10]; use conc. 2.0% W/W, 1. week): 5 (the sample surface is colonized completely (100%))
- Fungicidal finish, colonization rating AN ([10]; use conc. 2.0% W/W, 2. week): 5 (the sample surface is colonized completely (100%))
- Fungicidal finish, colonization rating AN ([11]; use conc. 0.5% W/W, 1. week): 5 (the sample surface is colonized completely (100%))
- Fungicidal finish, colonization rating AN ([11]; use conc. 0.5% W/W, 2. week): 5 (the sample surface is colonized completely (100%))
- Fungicidal finish, colonization rating AN ([11]; use conc. 1.0% W/W, 1. week): 5 (the sample surface is colonized completely (100%))
- Fungicidal finish, colonization rating AN ([11]; use conc. 1.0% W/W, 2. week): 5 (the sample surface is colonized completely (100%))
- Fungicidal finish, colonization rating AN ([11]; use conc. 2.0% W/W, 1. week): 5 (the sample surface is colonized completely (100%))
- Fungicidal finish, colonization rating AN ([11]; use conc. 2.0% W/W, 2. week): 5 (the sample surface is colonized completely (100%))
